Laboratory results taken from US6340687B1, “Substituted tetrahydro-pyrimidine-2(1H)-thione HDL-C elevators useful as antiatherosclerotic agents” (American Home Products Corporation, priority 1997, dated 2002).

Assays:
[1] = tested on: HDL cholesterol; assay: in vivo standard pharmacological test procedure measuring elevation of HDL cholesterol levels in cholesterol/cholic acid-fed rats; parameters: species or system Male Sprague-Dawley rats; conditions: serum, eight days of treatment; for change in vivo at 50 mg/kg: dose 50 mg/kg mixed in diet; for change in vivo at 100 mg/kg / HDL Cholesterol Level Increase (%): dose 100 mg/kg mixed in diet
Procedure: Representative compounds of this invention were evaluated in an in vivo standard pharmacological test procedure which measured the ability of the compounds of this invention to elevate HDL cholesterol levels. The following briefly describes the procedure used and results obtained. Male Sprague-Dawley rats weighing 200-225 g were housed two per cage and fed Purina Rodent Chow Special Mix 5001-S supplemented with 0.25% cholic acid and 1.0% cholesterol and water ad libitum for 8 days. Each test substance was administered to a group of six rats fed the same diet with the test diet mixed in as 0.005-0.1% of the total diet. Body weight and food consumption were recorded prior to diet administration and at termination. Typical doses of the test substances were 5-100 mg/kg/day.
At termination, blood was collected from anesthetized rats and the serum was separated by centrifugation. Total serum cholesterol was assayed using the Sigma Diagnostics enzymatic kit for the determination of cholesterol, Procedure No. 352, modified for use with ninety-six well microtiter plates. After reconstitutiton with water the reagent contains 300 U/l cholesterol oxidase, 100 U/l cholesterol esterase, 1000 U/l horse radish peroxidase, 0.3 mmol/l 4-aminoantipyrine and 30.0 mmol/l p-hydroxybenzene sulfonate in a pH 6.5 buffer. In the reaction cholesterol was oxidized to produce hydrogen peroxide which was used to form a quinoneimine dye. The concentration of dye formed was measured spectrophotometrically by absorbance at 490 nm after incubation at 25° C. for 30 minutes. The concentration of cholesterol was determined for each serum sample relative to a commercial standard from Sigma.
HDL cholesterol concentrations in serum were determined by separation of lipoprotein classes by fast protein liquid chromatography (FPLC) by a modification of the method of Kieft et al., (J. Lipid Res., 32, 859-866 (1991). Using this methodology, […] of serum was injected onto Superose 12 and Superose 6 (Pharmacia), in series, with a column buffer of 0.05 M Tris (2-amino-2-hydroxymethyl-1,3-propanediol) and 0.15 M sodium chloride at a flow rate of 0.5 mL/min. The eluted sample was mixed on line with Boehringer-Mannheim cholesterol reagent pumped at 0.2 mL/min. The combined eluents were mixed and incubated on line through a knitted coil (Applied Biosciences) maintained at a temperature of 45° C. The eluent was monitored by measuring absorbance at 490 nm and gives a continuous absorbance signal proportional to the cholesterol concentration. The relative concentration for each lipoprotein class was calculated as the percent of total absorbance. HDL cholesterol concentration in serum was calculated as the percent of total cholesterol as determined by FPLC multiplied by the total serum cholesterol concentration.
In Examples 5-7, 9, 10 and 12-20 the test compounds were administered at a dose of 100 mg/kg. In Examples 1, 2, 3 and 11, the test compounds were administered at a dose of 50 mg/kg. In Example 4, the test compound was administered at a dose of 46 mg/kg and in Example 8 at a dose of 90 mg/kg. The duration of treatment for all examples was eight days.

[2] = Rattus norvegicus, feed or water, 192 h, read-out: HDL Cholesterol Level Increase (%)

Compound | melting point [°C] | change in vivo at 100 mg/kg [1, 2] [%] | also measured
Cc1cc(Cl)ccc1N1CCCNC1=S [Example 1, 1-(4-Chloro-2-methyl-phenyl)-3,4,5,6-tetrahydro-pyrimidine-2(1H)-thione] | 266 to 268 | – | change in vivo at 50 mg/kg [1, 2]: 86%
S=C1NCCCN1c1ccccc1 [Example 2, 1-Phenyl-3,4,5,6-tetrahydro-pyrimidine-2(1H)-thione] | 211 to 212 | – | change in vivo at 50 mg/kg [1, 2]: 20%
CCN1CCCN(c2ccc(Cl)cc2C)C1=S [Example 3, 1-(4-Chloro-2-methyl-phenyl)-3-ethyl-3,4,5,6-tetrahydro-pyrimidine-2(1H)-thione] | 116 to 118 | – | change in vivo at 50 mg/kg [1, 2]: 152%
Cc1cccc(C)c1N1CCCNC1=S [Example 4, 1-(2,6-Dimethyl-phenyl)-3,4,5,6-tetrahydro-pyrimidine-2(1H)-thione] | 249 to 251 | – | change in vivo at 46 mg/kg ([1]; Rattus norvegicus, feed or water, 192 h, dose 46 mg/kg mixed in diet, read-out: HDL Cholesterol Level Increase (%)): 34%
CCN1CCCN(c2cc(Cl)ccc2C)C1=S [Example 5, 1-(5-Chloro-2-methyl-phenyl)-3-ethyl-3,4,5,6-tetrahydro-pyrimidine-2(1H)-thione] | 111 to 112 | 183 | –
Cc1ccc(Cl)cc1N1CCCN(C(C)C)C1=S [Example 6, 1-(5-Chloro-2-methyl-phenyl)-3-isopropyl-3,4,5,6-tetrahydro-pyrimidine-2(1H)-thione] | 176 to 178 | 137 | –
Cc1cc(Cl)ccc1N1CCCN(C(C)C)C1=S [Example 7, 1-(4-Chloro-2-methyl-phenyl)-3-isopropyl-3,4,5,6-tetrahydro-pyrimidine-2(1H)-thione] | 147 to 149 | 92 | –
C=CCN1CCCN(c2cc(Cl)ccc2C)C1=S [Example 8, 3-Allyl-1-(5-chloro-2-methyl-phenyl)-3,4,5,6-tetrahydro-pyrimidine-2(1H)-thione] | 71 to 72 | – | change in vivo at 90 mg/kg ([1]; Rattus norvegicus, feed or water, 192 h, dose 90 mg/kg mixed in diet, read-out: HDL Cholesterol Level Increase (%)): 21%
Cc1ccc(Cl)cc1N1CCCN(C)C1=S [Example 9, 1-(5-Chloro-2-methyl-phenyl)-3-methyl-3,4,5,6-tetrahydro-pyrimidine-2(1H)-thione] | 143 to 145 | 143 | –
C=CCN1CCCN(c2ccc(Cl)cc2C)C1=S [Example 10, 3-Allyl-1-(4-chloro-2-methyl-phenly)-3,4,5,6-tetrahydro-pyrimidine-2(1H)-thione] | – | – | HDL Cholesterol Level Increase (%) [1]: 57%
Cc1cc(Cl)ccc1N1CCCN(C)C1=S [Example 11, 1-(4-Chloro-2-methyl-phenyl)-3-methyl-3,4,5,6-tetrahydro-pyrimidine-2(1H)thione] | 143 to 145 | – | change in vivo at 50 mg/kg [1, 2]: 86%
C=CCN1CCCN(c2c(C)cccc2Cl)C1=S [Example 12, 3-Allyl-1-(6-chloro-2-methyl-phenyl)-3,4,5,6-tetrahydro-pyrimidine-2(1H)-thione] | 82 to 84 | 19 | –
Cc1cccc(Cl)c1N1CCCN(C)C1=S [Example 13, 1-(6-Chloro-2-methyl-phenyl)-3-methyl-3,4,5,6-tetrahydro-pyrimidine-2(1H)-thione] | 164 to 165 | 81 | –
Cc1ccc(Cl)cc1N1CCCN(CC(C)C)C1=S [Example 14, 1-(5-Chloro-2-methyl-phenyl)-3-isobutyl-3,4,5,6-tetrahydro-pyrimidine-2-(1H)-thione] | – | – | HDL Cholesterol Level Increase (%) [1]: 66%
Cc1cccc(Cl)c1N1CCCN(C(C)C)C1=S [Example 15, 1-(6-Chloro-2-methyl-phenyl)-3-isopropyl-3,4,5,6-tetrahydro-pyrimidine-2(1H)-thione] | 135 to 136 | 86 | –
CCN1CCCN(c2c(C)cccc2Cl)C1=S [Example 16, 1-(6-Chloro-2-methyl-phenyl)-3-ethyl-3,4,5,6-tetrahydro-pyrimidine-2(1H)-thione] | 88 to 90 | 85 | –
Cc1cc(Cl)ccc1N1CCCN(CC(C)C)C1=S [Example 17, 1-(4-Chloro-2-methyl-phenyl)-3-isobutyl-3,4,5,6-tetrahydro-pyrimidine-2(1H)-thione] | 88 to 90 | 12 | –
Cc1cccc(Cl)c1N1CCCN(C2CCC2)C1=S [Example 18, 1-(6-Chloro-2-methyl-phenyl)-3-cyclobutyl-3,4,5,6-tetrahydro-pyrimidine-2(1H)-thione] | 89 to 91 | 42 | –
Cc1ccc(Cl)cc1N1CCCN(C2CCC2)C1=S [Example 19, 1-(5-Chloro-2-methyl-phenyl)-3-cyclobutyl-3,4,5,6-tetrahydro-pyrimidine-2(1H)-thione] | 152 to 154 | 37 | –
Cc1cccc(Cl)c1N1CCCN(CC(C)C)C1=S [Example 20, 1-(6-Chloro-2-methyl-phenyl)-3-isobutyl-3,4,5,6-tetrahydro-pyrimidine-2(1H)-thione] | 119 to 121 | 24 | –
